# Source: paper PMC12503906, “Novel Pyrazolo [1,5‐a]−1,3,5‐Triazine Derivatives as CDK7 Inhibitors: Synthesis and Biological Insights in Pancreatic Ductal Adenocarcinoma Models” (Chemmedchem, 2025)
# Tests used:
# PATU‐T = assay: Annexin V apoptosis assay, PATU‐T; type: cell-based; conditions: 1 × IC50
# Experimental: (§1) In order to investigate the apoptotic properties of the compounds 1b and 1g, the Annexin V apoptosis assay was performed. Annexins are calcium‐dependent phospholipid binding proteins, which are able to bind to phosphatidylserine (PS). The externalization of PS residues on the outer membrane of apoptotic cells can be detected by Annexin V.
# (§2) For this assay, cells were seeded in a 96‐well plate at a concentration of 13.5 × 10^3 and 4.5 × 10^3 /well respectively for the 24 and 72 h experiments. The next day cells were treated with compounds 1b and 1g at 1 × IC50 and 4 × IC50 concentrations. The apoptosis assay was performed 24 and 72 h post‐treatment following the BD Pharmingen FITC Annexin V Apoptosis Detection Kit I (BD Biosciences, 556,547). The supernatant was aspirated, and cells were washed with phosphate‐buffered saline (PBS). Cells were consequently treated with binding buffer BBA + Annexin V (1:100) and were incubated in the dark at RT for 10 min. The supernatant was removed, and the cells were washed with BBA (1:10). Cells were then incubated with BBA + PI (1:100) and were immediately read with the spectrophotometer at ex. 485/ em. 535. Two different programs were used to read the Annexin V and the PI absorbance. Lastly, 100 µL of PBS were added to each well before being fixed with TCA. This was followed by the SRB assay to standardize fluorescence data according to cell count. Data were exported into GraphPad Prism 10 for statistical analysis.
# [1] = molecular target: T1, phosphorylated CDK7 (p‐CDK7) (Homo sapiens, UniProt P50613); assay: Phospho‐CDK7 (Thr170) cell‐based ELISA, PDAC3; design: endogenous in cells; host or cells: PDAC3 primary cells; conditions: PDAC3, 4 × IC50, ELISA
# T1 sequence (P50613 2-346 limits assumed): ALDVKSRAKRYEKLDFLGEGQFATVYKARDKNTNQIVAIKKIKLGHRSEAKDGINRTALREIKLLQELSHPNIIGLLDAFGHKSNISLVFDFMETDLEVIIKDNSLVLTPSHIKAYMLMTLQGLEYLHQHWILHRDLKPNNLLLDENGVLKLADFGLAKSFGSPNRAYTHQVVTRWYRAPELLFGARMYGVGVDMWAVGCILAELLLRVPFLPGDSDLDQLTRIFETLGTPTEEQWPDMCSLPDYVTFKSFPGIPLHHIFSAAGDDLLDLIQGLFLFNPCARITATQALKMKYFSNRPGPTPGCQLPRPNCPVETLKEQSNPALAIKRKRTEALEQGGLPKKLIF
# T1 sequence (P51946 whole entry partner): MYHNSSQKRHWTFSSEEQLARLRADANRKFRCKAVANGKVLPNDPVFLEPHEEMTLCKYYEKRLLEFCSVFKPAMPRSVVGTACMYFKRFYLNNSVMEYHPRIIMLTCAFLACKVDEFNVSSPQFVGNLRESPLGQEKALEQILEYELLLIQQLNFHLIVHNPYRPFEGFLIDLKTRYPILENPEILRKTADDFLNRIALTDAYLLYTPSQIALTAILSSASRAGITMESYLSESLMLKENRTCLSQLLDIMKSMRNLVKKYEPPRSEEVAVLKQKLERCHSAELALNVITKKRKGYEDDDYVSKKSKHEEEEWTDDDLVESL
# T1 sequence (P51948 whole entry partner): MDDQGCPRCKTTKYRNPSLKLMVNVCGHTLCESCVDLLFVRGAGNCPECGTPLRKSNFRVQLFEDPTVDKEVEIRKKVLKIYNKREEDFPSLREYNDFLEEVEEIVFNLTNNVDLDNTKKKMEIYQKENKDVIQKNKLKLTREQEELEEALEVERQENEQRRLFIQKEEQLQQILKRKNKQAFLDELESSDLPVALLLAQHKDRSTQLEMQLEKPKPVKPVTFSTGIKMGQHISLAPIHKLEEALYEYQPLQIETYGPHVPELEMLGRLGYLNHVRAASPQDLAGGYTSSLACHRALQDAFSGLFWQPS
# Experimental: (§3) To detect CDK7 and phospho‐CDK7 levels at Thr170 residue after treatment, an enzyme‐linked immunosorbent assay (Biomatik, Phospho‐CDK7 (Thr170) Colorimetric Cell‐Based ELISA Kit, Cat# EKA51274) was performed according to the manufacturer's protocols. […] The absorbance was read at 450 nm using a microplate reader.
# Bax/Bcl‐2 = Bax/Bcl‐2 ratio by RT‐PCR, PANC‐1 cells; type: cell-based
# Experimental: In order to understand modulation of downstream genes of CDK7, gene expression analysis by qPCR was performed in all cell lines. Cells (5 × 10^5/well) were seeded in 6‐well plates and treated with the compounds 1b and 1g at 1× and 4 × IC50 concentrations. Cell lysates were collected 24 h post‐treatment using 300 µL of TRIzol Reagent (Ambion, 15,596,018) per well. Total RNA was extracted by mixing 60 µL of chloroform to the samples, incubating for 3 min and centrifuging at 12,000 rcf for 15 min at 4 °C. The upper aqueous phase containing RNA was transferred to a new Eppendorf and mixed with 120 µL of cold isopropanol in order to allow the RNA to precipitate. Samples were incubated at RT for 10 min and were then centrifuged at 12,000 rcf for 10 min at 4 °C. The isopropanol was carefully removed, and the pellet was washed twice with 70% ETOH. Pellets were left to air dry and consequently resuspended in RNAse‐free water. Samples were left agitation on a thermomixer at 55 °C for 10 min at 600 rpm and were then quantified through NanoDrop technology (Thermo Scientific, NanoDrop One/One^c). RNA samples were stored at −80 °C.
# In order to perform cDNA synthesis, the First Strand cDNA synthesis kit (Thermo Scientific, K1612) was used. The previously isolated RNA was mixed with 1 µL of oligo dT18 primer into a pcr tube. Nuclease free water was added to reach a final volume of 11 µL. Samples were centrifuged at 1200 rcf for 5 min and were then placed on a thermomixer at 65 °C for a few minutes. A master mix was prepared, including 4 µL of 5× reaction buffer, 1 µL of ribolock RNAse inhibitor, 2 µL of dntp mix (10 mM), and 2 µL of M‐mulv reverse transcriptase for each sample. In total 9 µL of master mix were added to each vial. Samples were centrifuged again and were finally synthesized, following a cycle of 60 min at 37 °C and 5 min at 70 °C. cDNA was now finally synthesized and could be stored at −20 °C. RT‐PCRs reactions were performed using SYBR Green (Bio‐Rad, 1,725,271) (5 µL per sample), primer mix (0.3 µM) (2 µL per sample), and cDNA (10 ng µL^− ^1) (3 µL per sample). […] RT‐PCR assays were carried out in a GeneAmp 5700 Sequence Detection System programmed to hold at 50 °C for 30 min, to hold at 95 °C for 10 min, and to complete 45 cycles of 95 °C for […] and 50 °C for 1 min. The genes that were investigated are shown in Table 5 , with their respective forward and reverse primer sequences.
# PANC‐1 = assay: Annexin V apoptosis assay, PANC‐1; type: cell-based; conditions: 1 × IC50
# Experimental: as §1, §2
# [2] = molecular target: T1, phosphorylated CDK7 (p‐CDK7); assay: Phospho‐CDK7 (Thr170) cell‐based ELISA, SUIT 2.28; design: two PDAC preclinical models (SUIT 2.28 and PDAC3); endogenous in cells; host or cells: SUIT 2.28; conditions: SUIT 2.28, 4 × IC50, ELISA
# Experimental: as §3
Compound,apoptotic index (PATU‐T; 24 h),apoptotic index (PATU‐T; 72 h),p‐CDK7 expression vs untreated [1],"Bax/Bcl‐2 ratio PANC‐1 (Bax/Bcl‐2; 1 × IC50, 24 h after treatment)","Bax/Bcl‐2 ratio PANC‐1 (Bax/Bcl‐2; 4 × IC50, 24 h after treatment)","apoptotic index (PANC‐1; PANC‐1, 24 h)","apoptotic index (PANC‐1; PANC‐1, 72 h)",p‐CDK7 expression vs untreated [2]
"Nc1ncnc2cc(-c3c[nH]c4ccc(Br)cc34)nn12 [Compound 1b, 7‐(5‐Bromo‐1H‐indol‐3‐yl)pyrazolo[1,5‐a][1,3,5]triazin‐4‐amine]",did not show a significant apoptotic index,significant increase in apoptotic index,decrease in p‐CDK7 expression,4.12,2.44,did not show any significant increase in apoptotic index,significant increase in apoptotic index,decrease in p‐CDK7 expression
"Cn1cc(-c2cc3ncnc(N)n3n2)c2cc(Br)ccc21 [Compound 1g, 7‐(5‐Bromo‐1‐methyl‐1H‐indol‐3‐yl)pyrazolo[1,5‐a][1,3,5]triazin‐4‐amine]",significantly increased apoptosis,not significant compared to control,decrease in p‐CDK7 expression,6.41,1.83,did not show any significant increase in apoptotic index,slight increase that was not statistically significant,decrease in p‐CDK7 expression
